In patent US20240166624A1, “PPARG INVERSE AGONISTS AND USES THEREOF” (Flare Therapeutics Inc., priority 2021, published 2024) one finds EC50 and inhibition data, which are given here for 21 compounds.

Test [1] concerns the target T1, PPARG/RXRA LBD heterodimer (Homo sapiens, UniProt P37231).
T1 construct: His-TEV-Q203-Y477; Uniprot ID P37231-2; made in house; host or cells: E. coli
Description: PPARγ-NCOR1 recruitment assay (TR-FRET, biotinylated NCOR1 ID2 peptide). The test is classed as biochemical. The settings on record: 80 nM Rosiglitazone, 3 hours, read-out: PPARG-NCOR recruitment assay EC50. The method, then: PPARγ-NCOR1 Recruitment Assay:
Compound potency (EC50) and maximal extent of NCOR1 recruitment to PPARG were assessed a TR-FRET binding assay measuring association of a biotinylated NCOR1 ID2 peptide (Biotin-[…]-amide) to PPARG/RXRA LBD heterodimer. Specifically, a 20 microliters of TR-FRET master mix consisting of 2 nM WT PPARG LBD (E. coli expressed, His-TEV-Q203-Y477; Uniprot ID P37231-2), 2 nM WT RXRA LBD or mutant S427F RXRA LBD (E. coli expressed, Flag-TEV-E228-T462; […]. Mixtures were incubated for 3 hours and read in an EnVision plate reader (Perkin Elmer) with Ex/Em 615/665. To determine the potency (EC50) and extent of NCOR1 recruitment, TR-FRET ratios were normalized to the average ratio of DMSO control wells (0%) and to the average maximum ratio for positive control compound (T0070907 (2-chloro-5-nitro-N-4-pyridinyl-benzamide); defined as 100%) in CDD Vault and analyzed using the Levenberg-Marquardt algorithm.
T1 sequence (O75376 2251-2273 partner, one chain of several): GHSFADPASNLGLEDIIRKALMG

In test [2] the target is T2, PPARG/RXRA LBD heterodimer (Homo sapiens, UniProt P37231).
T2 construct: His-TEV-Q203-Y477; Uniprot ID P37231-2; made in house; host or cells: E. coli
T2 sequence (P37231 203-477 isoform P37231-2): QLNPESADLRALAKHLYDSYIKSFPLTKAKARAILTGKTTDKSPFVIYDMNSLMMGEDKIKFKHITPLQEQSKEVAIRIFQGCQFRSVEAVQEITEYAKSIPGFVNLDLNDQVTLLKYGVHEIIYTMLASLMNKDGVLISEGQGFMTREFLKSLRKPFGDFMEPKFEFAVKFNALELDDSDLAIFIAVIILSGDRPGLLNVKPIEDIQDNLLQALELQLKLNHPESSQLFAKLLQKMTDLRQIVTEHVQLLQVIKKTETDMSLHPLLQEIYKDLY
T2 sequence (P19793 228-462 partner limits assumed): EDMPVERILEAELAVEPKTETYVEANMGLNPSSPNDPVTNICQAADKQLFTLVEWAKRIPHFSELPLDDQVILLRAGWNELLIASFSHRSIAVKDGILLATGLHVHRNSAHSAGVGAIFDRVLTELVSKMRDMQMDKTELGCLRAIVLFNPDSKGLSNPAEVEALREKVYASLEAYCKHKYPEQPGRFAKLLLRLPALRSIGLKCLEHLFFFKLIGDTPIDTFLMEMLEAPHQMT
Description: PPARγ-MED1 blockade assay (TR-FRET, biotinylated MED1 LxxLL peptide). Type of test: biochemical. As to conditions: WT PPARG LBD/WT RXRA LBD, 80 nM Rosiglitazone, 3 hours. How it is done:
PPARγ-MED1 Blockade Assay:
Compound potency (IC50) and maximal extent of MED1 repulsion to PPARG were assessed a TR-FRET binding assay measuring association of a biotinylated MED1 LxxLL peptide (Biotin-[…]-amide) to PPARG/RXRA LBD heterodimer. Specifically, a 20 microliters of TR-FRET master mix consisting of 2 nM WT PPARG LBD (E. coli expressed, His-TEV-Q203-Y477; Uniprot ID P37231-2), 2 nM WT RXRA LBD (E. coli expressed, Flag-TEV-E228-T462; […]. Mixtures were incubated for 3 hours and read in an EnVision plate reader (Perkin Elmer) with Ex/Em 615/665. To determine the potency (IC50) and extent of MED1 repulsion, TR-FRET ratios were normalized to the average ratio of DMSO control wells (0%) and to the average minimum ratio for positive control compound (GW9662 (2-chloro-5-nitrobenzanilide); defined as 100%) in CDD Vault and analyzed using the Levenberg-Marquardt algorithm.
On the technique in general: TR-FRET usually uses a lanthanide donor and a delayed reading to cut background.

Test [3] has as its system ANGPTL4, a PPARG target gene, in HT1197 (RXRA S427F mutation) cells. Put plainly: Bladder cancer pharmacodynamic assay, HT1197 cell assay (qPCR of ANGPTL4). Type of test: cell-based. As to conditions: Homo sapiens, 24 hours, 100 nM compound, relative to DMSO control. How it is done:
Bladder Cancer Pharmacodynamic Assay
5637 (PPARG amplified) and HT1197 (RXRA S427F mutation) cells were used for assessment of modulation of PPARG target genes using quantitative PCR. Cells were treated for 24 hours with PPARG inverse agonists prior to analysis of FABP4 (IDT, Cat: Hs.PT 58.20106818) and ANGPTL4 (IDT, Cat: Hs.PT 58.25480012) expression, with expression of the housekeeping gene TBP (IDT, Cat: Hs.PT 58v.39858774) used to normalize expression across samples. Quantitative PCR was performed using an ABI QuantStudio 7 Flex Reaction system. Data were analyzed and reported relative to DMSO control using the comparative Ct method (ΔΔCt).
For orientation: Quantitative PCR measures a nucleic acid by following its amplification.

A word on the EC50: it is the midpoint of the concentration-response curve. One may read the inhibition as the relative decrease from the control value, in per cent.

For the compound `Cn1cc(-c2c(F)cc3[nH]c(-c4cc(C#N)ccc4Cl)cc(=O)c3c2F)cn1` [Example 44, 4-chloro-3-(5,7-difluoro-6-(1-methyl-1H-pyrazol-4-yl)-4-oxo-1,4-dihydroquinolin-2-yl)benzonitrile], the EC50 in test [1] and in test [2] was 100 to 1000 nM each time. Further, in test [3], the inhibition at 0.1 µM came to 75%.
Take `N#Cc1ccc(Cl)c(-c2cc(=O)c3c(F)c(N4CCCC4=O)c(F)cc3[nH]2)c1` [Example 27, 4-chloro-3-(5,7-difluoro-4-oxo-6-(2-oxopyrrolidin-1-yl)-1,4-dihydroquinolin-2-yl)benzonitrile]: the concentration for a half-maximal effect (EC50) in test [1] and in test [2] was 1000 to 10000 nM throughout. The inhibition at 0.1 µM in test [3] amounted to 47%.
With `CN(C)C(=O)c1cc(-c2c(F)cc3[nH]c(-c4cc(C#N)ccc4Cl)cc(=O)c3c2F)c(F)cc1F` [Example 87, 5-(2-(2-chloro-5-cyanophenyl)-5,7-difluoro-4-oxo-1,4-dihydroquinolin-6-yl)-2,4-difluoro-N,N-dimethylbenzamide], the 50% effective concentration (EC50) in test [1] and in test [2] was 100 to 1000 nM each time. Moreover, at 0.1 µM the inhibition in test [3] was 75%.
`CN(C)[C@@H]1CCN(c2c(F)cc3[nH]c(-c4cc(C#N)ccc4Cl)cc(=O)c3c2F)C1` [Example 109, (R)-4-chloro-3-(6-(3-(dimethylamino)pyrrolidin-1-yl)-5,7-difluoro-4-oxo-1,4-dihydroquinolin-2-yl)benzonitrile]: the EC50 in test [1] and in test [2] was 1000 to 10000 nM throughout. In test [3], this compound yielded an inhibition at 0.1 µM of 65%.
For the compound `N#Cc1ccc(Cl)c(-c2cc(=O)c3c(F)c(-c4cnn(C(F)(F)F)c4)c(F)cc3[nH]2)c1` [Example 58, 4-chloro-3-(5,7-difluoro-4-oxo-6-(1-(trifluoromethyl)-1H-pyrazol-4-yl)-1,4-dihydroquinolin-2-yl)benzonitrile], the EC50 in test [1] and in test [2] was 100 to 1000 nM in each case. Moreover, the inhibition at 0.1 µM in test [3] was 88%.
Consider `O=c1cc(-c2cc([N+](=O)[O-])ccc2Cl)[nH]c2ccccc12` [Example 14, 2-(2-chloro-5-nitrophenyl)quinolin-4(1H)-one], for which the EC50 in test [1] and in test [2] was less than 10 nM in each case. This compound came in with an inhibition at 0.1 µM in test [3] of 38%.
Turning to `CNC(=O)CCc1c(F)cc2[nH]c(-c3cc(C#N)ccc3Cl)cc(=O)c2c1F` [Example 81, 3-(2-(2-chloro-5-cyanophenyl)-5,7-difluoro-4-oxo-1,4-dihydroquinolin-6-yl)-N-methylpropanamide], the EC50 was 1000 to 10000 nM in test [1] and more than 10000 nM in test [2]. In addition, the inhibition at 0.1 µM in test [3] was 46%.
Take `N#Cc1ccc(Cl)c(-c2cc(=O)c3c(F)c(CCC(=O)O)c(F)cc3[nH]2)c1` [Example 77, 3-(2-(2-chloro-5-cyanophenyl)-5,7-difluoro-4-oxo-1,4-dihydroquinolin-6-yl)propanoic acid]: the EC50 in test [1] and in test [2] was 1000 to 10000 nM each time. This compound had an inhibition at 0.1 µM in test [3] of 44%.
With `CC(=O)N1CCC(c2c(F)cc3[nH]c(-c4cc(C#N)ccc4Cl)cc(=O)c3c2F)CC1` [Example 95, 3-(6-(1-acetylpiperidin-4-yl)-5,7-difluoro-4-oxo-1,4-dihydroquinolin-2-yl)-4-chlorobenzonitrile], the EC50 in test [1] and in test [2] was 100 to 1000 nM in each case. Further, in test [3], the inhibition at 0.1 µM stood at 87%.
`N#Cc1ccc(Cl)c(-c2[nH]c3cc(F)cc(F)c3c(=O)c2F)c1` [Example 118, 4-chloro-3-(3,5,7-trifluoro-4-oxo-1,4-dihydroquinolin-2-yl)benzonitrile]: the EC50 in test [1] and in test [2] was more than 10000 nM throughout.
For `Cc1ccc(-c2c(F)cc3[nH]c(-c4cc(C#N)ccc4Cl)cc(=O)c3c2F)nn1` [Example 70, 4-chloro-3-(5,7-difluoro-6-(6-methylpyridazin-3-yl)-4-oxo-1,4-dihydroquinolin-2-yl)benzonitrile], the concentration giving a half-maximal response (EC50) in test [1] and in test [2] was 1000 to 10000 nM throughout. The compound further gave an inhibition at 0.1 µM in test [3] of 66%.
Take `CN(C)C(=O)[C@H]1CCN(c2c(F)cc3[nH]c(-c4cc(C#N)ccc4Cl)cc(=O)c3c2F)C1` [Example 117, (S)-1-(2-(2-chloro-5-cyanophenyl)-5,7-difluoro-4-oxo-1,4-dihydroquinolin-6-yl)-N,N-dimethylpyrrolidine-3-carboxamide]: the EC50 in test [1] and in test [2] was 1000 to 10000 nM throughout. In test [3], the inhibition at 0.1 µM worked out at 79%.
Turning to `Cn1ccc(-c2c(F)cc3[nH]c(-c4cc(C#N)ccc4Cl)cc(=O)c3c2F)n1` [Example 47, 4-chloro-3-(5,7-difluoro-6-(1-methyl-1H-pyrazol-3-yl)-4-oxo-1,4-dihydroquinolin-2-yl)benzonitrile], the half-maximal effective concentration (EC50) in test [1] and in test [2] was 100 to 1000 nM each time. For the same compound, at 0.1 µM the inhibition in test [3] was 66%.
As for `Cc1cc2[nH]c(-c3cc(C#N)ccc3Cl)cc(=O)c2cc1C#N` [Example 9, 2-(2-chloro-5-cyanophenyl)-7-methyl-4-oxo-1,4-dihydroquinoline-6-carbonitrile], the EC50 in test [1] and in test [2] was 1000 to 10000 nM in each case.
Regarding `N#Cc1ccc(Cl)c(-c2cc(=O)c3c(F)cc(C(F)(F)F)cc3[nH]2)c1` [Example 91, 4-chloro-3-(5-fluoro-4-oxo-7-(trifluoromethyl)-1,4-dihydroquinolin-2-yl)benzonitrile], the EC50 in test [1] and in test [2] was 100 to 1000 nM each time.
Take `N#Cc1ccc(Cl)c(-c2[nH]c3cc(F)cc(F)c3c(=O)c2Cl)c1` [Example 119, 4-chloro-3-(3-chloro-5,7-difluoro-4-oxo-1,4-dihydroquinolin-2-yl)benzonitrile]: the EC50 in test [1] and in test [2] was more than 10000 nM throughout.
Turning to `N#Cc1ccc(Cl)c(-c2cc(=O)c3c(F)c(Br)c(F)cc3[nH]2)c1` [Example 33, 3-(6-bromo-5,7-difluoro-4-oxo-1,4-dihydroquinolin-2-yl)-4-chlorobenzonitrile], the EC50 in test [1] and in test [2] was 100 to 1000 nM each time.
`N#Cc1ccc(Cl)c(-c2cc(=O)c3cc(F)cc(F)c3[nH]2)c1` [Example 8, 4-chloro-3-(6,8-difluoro-4-oxo-1,4-dihydroquinolin-2-yl)benzonitrile]: the concentration for a half-maximal effect (EC50) in test [1] and in test [2] was more than 10000 nM throughout.
Consider `N#Cc1ccc(Cl)c(-c2cc(=O)c3c(F)c(F)ccc3[nH]2)c1` [Example 10, 4-chloro-3-(5,6-difluoro-4-oxo-1,4-dihydroquinolin-2-yl)benzonitrile], for which the EC50 was more than 10000 nM in test [1] and 1000 to 10000 nM in test [2].
For the compound `N#Cc1ccc(Cl)c(-c2cc(=O)c3cc(C#N)c(C(F)(F)F)cc3[nH]2)c1` [Example 12, 2-(2-chloro-5-cyanophenyl)-4-oxo-7-(trifluoromethyl)-1,4-dihydroquinoline-6-carbonitrile], the figures for the concentration giving a half-maximal response (EC50) in test [1] and in test [2] were more than 10000 nM and 1000 to 10000 nM, respectively.
The corresponding values for `N#Cc1ccc(F)c(-c2cc(=O)c3c(F)cc(F)cc3[nH]2)c1` [Example 3, 3-(5,7-difluoro-4-oxo-1,4-dihydroquinolin-2-yl)-4-fluorobenzonitrile] are 1000 to 10000 nM and 1000 to 10000 nM.
